# US12385009B2, “Methods and compositions for generating oligodendrocyte progenitor cells” (Trailhead Biosystems Inc., priority 2021, dated 2025)
# “Also recorded” adds a separate entry of the source.
# Key:
# [1] = test system: human pluripotent stem cells; assay: HD-DoE #2: 13-factor experiment, differentiation toward anterior neuroectoderm (OTX2, FEZF2 expression); type: cell-based; settings: for contribution to expression of OTX2 (in words): 13-factor model of high expression of OTX2; for effect on expression of FEZF2 (dynamic profiling analysis) / impact on expression level of OTX2 (dynamic profiling analysis): 13-factor model
# Source text: (§1) This example utilizes a method of High-Dimensional Design of Experiments (HD-DoE), as previously described in Bukys et al. (2020) Iscience 23:101346. The method employs computerized design geometries to simultaneously test multiple process inputs and offers mathematical modeling of a deep effector/response space. The method allows for finding combinatorial signaling inputs that control a complex process, such as during cell differentiation. It allows testing of multiple plausible critical process parameters, as such parameters impact output responses, such as gene expression. Because gene expression provides hallmark features of the phenotype of, for example, a human cell, the method can be applied to identify, and understand, which signaling pathways control cell fate. In the current example, the HD-DOE method was applied with the intent to find conditions for induction of oligodendrocyte progenitor-expressed genes, directly from the pluripotent stem cell state.
# (§2) Specifically, to develop a novel method to generate oligodendrocytes, the impact of agonists and antagonists of multiple signaling pathways (herein called effectors) were tested on expression of two sets of 53 pre-selected genes after a 3-day treatment. These effectors are small molecules that are commonly used during stepwise differentiation of stem cells to specific fates. Choice of the effectors were based on current literature on neural induction in anterior ectoderm and differentiation of stem cells to oligodendrocytes.
# To further enhance the conditions for oligodendrocyte differentiation from pluripotency, we performed an additional HD-DoE experiment. We obtained additional gene regulatory models that were used for preparation of a differentiation protocol. The basis of this was a 13-factor HD-DoE experiment with focus on initiation of differentiation of cells toward anterior neuroectoderm. In this model, we focused on expression of FEZF2 and OTX2.
# [2] = test system: human pluripotent stem cells; assay: HD-DoE #1: 8-factor experiment, gene expression after 3-day treatment with effectors; type: cell-based; settings: 8-factor model
# Source text: as §1, §2
# To test the effectors, experiments with at least 8 factors were designed that can assess the response of cells to 48 or more different combinations of effectors in a range of concentrations. To analyze the models, we focused on expression of genes expressed during early development of anterior neuroectoderm and oligodendrocytes including NKX2-2, OLIG2, OLIG1, and PDGFRA. The impact of each effector on gene expression level is defined by a parameter called factor contribution that is calculated for each effector during the modeling.
# This model tested 8 factors: PD0325901, MK2206, TTNPB, SC79, MHY1485, ZM336372, AGN193109 and AZD3147.
Compound,contribution to expression of OTX2 (in words) [1],"effect on expression of targeted oligodendrocyte genes (NKX2-2, OLIG2) [2]",also measured
Cc1c[nH]c(-c2cnc(NCCNc3ccc(C#N)cn3)nc2-c2ccc(Cl)cc2Cl)n1 [CHIR99021],positive contribution,–,–
COc1ccc2c(c1)c(C1=C(c3c[nH]c4ccccc34)C(=O)NC1=O)cn2CCCN(C)C [Go6983],positive contribution,–,–
c1ccc2c(-c3cnn4cc(-c5ccc(N6CCNCC6)cc5)cnc34)ccnc2c1 [LDN193189],positive contribution,–,–
O=[N+]([O-])c1ccc(Nc2nc(N3CCOCC3)nc(N3CCOCC3)n2)cc1 [MHY1485],–,significant positive effect,–
NC1(c2ccc(-c3nc4ccn5c(=O)[nH]nc5c4cc3-c3ccccc3)cc2)CCC1 [MK2206],–,negative effect,–
O=C(NOC[C@H](O)CO)c1ccc(F)c(F)c1Nc1ccc(I)cc1F [PD0325901],positive contribution,negatively impacting; also recorded: negative effect,–
c1ccc2c(Oc3nc(Nc4ccc(N5CCOCC5)cc4)c4ncn(C5CCCCC5)c4n3)cccc2c1 [Purmorphamine],–,–,effect on expression of FEZF2 (dynamic profiling analysis) [1]: significant positive effects; impact on expression level of OTX2 (dynamic profiling analysis) [1]: no negative impact
CCOC(=O)C1=C(N)Oc2ccc(Cl)cc2C1C(C#N)C(=O)OCC (centres unmarked) [SC79],–,significant positive effect,–
C/C(=C\c1ccc(C(=O)O)cc1)c1ccc2c(c1)C(C)(C)CCC2(C)C [TTNPB],–,significant positive effect,–
Oc1nc(-c2ccc(C(F)(F)F)cc2)nc2c1CSCC2 [XAV939],–,–,effect on expression of FEZF2 (dynamic profiling analysis) [1]: significant positive effects; impact on expression level of OTX2 (dynamic profiling analysis) [1]: no negative impact
Cc1ccc(NC(=O)c2cccc(N(C)C)c2)cc1NC(=O)c1ccc(O)cc1 [ZM336372],–,negatively impacting,–
